The target in one test is hepatic lipase (HL) (Homo sapiens (Human), UniProt P11150). The test can be described thus: HL assay: hepatic lipase activity with fluorescent substrate A10070 in DMPG vesicles. It counts as biochemical. The gist of the method:
(§1)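 Substrate A10070 sits in sonicated DMPG vesicles at 0.11 mole fraction. Lipase and compound preincubated 30 min, 37° C, in HEPES pH 8.0 buffer with CaCl2.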

Another test concerns the target Endothelial lipase (EL) (Homo sapiens (Human), UniProt Q9Y5X9). The test can be described thus: EL assay: endothelial lipase activity with fluorescent substrate A10070 in DMPG vesicles. It counts as biochemical. The method in brief: as §1

Each structure is given as a SMILES string. Like-named read-outs stand apart in the source and are kept apart here.

hepatic lipase (HL), sequence (P11150 23-499, species assumed): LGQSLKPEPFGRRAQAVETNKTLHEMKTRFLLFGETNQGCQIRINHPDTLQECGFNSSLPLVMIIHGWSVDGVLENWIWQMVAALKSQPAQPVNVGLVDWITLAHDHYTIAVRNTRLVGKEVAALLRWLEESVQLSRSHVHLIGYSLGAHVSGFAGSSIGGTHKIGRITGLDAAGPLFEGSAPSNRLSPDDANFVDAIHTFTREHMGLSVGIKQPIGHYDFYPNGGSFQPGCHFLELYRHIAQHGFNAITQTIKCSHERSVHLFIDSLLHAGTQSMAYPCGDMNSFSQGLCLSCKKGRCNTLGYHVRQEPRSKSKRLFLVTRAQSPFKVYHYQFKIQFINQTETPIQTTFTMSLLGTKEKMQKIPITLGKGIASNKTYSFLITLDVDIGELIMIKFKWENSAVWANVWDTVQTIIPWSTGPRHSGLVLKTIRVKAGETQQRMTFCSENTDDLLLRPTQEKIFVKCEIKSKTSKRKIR
Endothelial lipase (EL), sequence (Q9Y5X9 21-500): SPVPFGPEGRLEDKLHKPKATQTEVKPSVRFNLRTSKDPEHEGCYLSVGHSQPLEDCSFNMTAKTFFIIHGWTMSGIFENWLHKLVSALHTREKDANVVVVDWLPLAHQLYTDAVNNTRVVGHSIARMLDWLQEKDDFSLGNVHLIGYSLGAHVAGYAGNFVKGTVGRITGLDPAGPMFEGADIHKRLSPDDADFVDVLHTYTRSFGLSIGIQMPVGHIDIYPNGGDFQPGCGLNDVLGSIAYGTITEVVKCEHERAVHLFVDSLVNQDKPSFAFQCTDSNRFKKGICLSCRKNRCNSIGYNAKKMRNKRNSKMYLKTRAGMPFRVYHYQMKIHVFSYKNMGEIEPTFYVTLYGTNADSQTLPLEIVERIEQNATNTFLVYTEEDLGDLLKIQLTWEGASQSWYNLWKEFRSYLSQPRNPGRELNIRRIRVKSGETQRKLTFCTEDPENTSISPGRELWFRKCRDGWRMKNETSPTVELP

As a reminder, the IC50 is the concentration needed to halve the response being measured. Turning to `NS(=O)(=O)CCNC(=O)C(c1nc2ccc(C(=O)N3CC(F)(F)C3)cc2s1)S(=O)(=O)CCC(F)(F)F` (centres unmarked) [Example B200, 2-(6-((3,3-difluoro-1-azetidinyl)carbonyl)-1,3-benzothiazol-2-yl)-N-(2-sulfamoylethyl)-2-((3,3,3-trifluoropropyl)sulfonyl)a-cetamide], the figures for the IC50 against hepatic lipase (HL) and at Endothelial lipase (EL) were 10000 nM and 26 nM, respectively.

For the compound `NS(=O)(=O)CCNC(=O)C(c1nc2ccc(-c3ccccc3)cc2s1)S(=O)(=O)Cc1ccc(F)cc1` (centres unmarked) [Example B119, 2-((4-fluorobenzyl)sul-fonyl)-2-(6-phenyl-1,3-benzothiazol-2-yl)-N-(2-sulfamoylethyl)acetamide], the concentration for half-maximal inhibition (IC50) at hepatic lipase (HL) is 11 nM; at Endothelial lipase (EL), under 10 nM.

Consider `CS(=O)(=O)C(C(=O)NCCS(N)(=O)=O)c1nc2ccc(-c3ccc(C(=O)N4CCC(F)(F)C4)cc3)cc2s1` (centres unmarked) [Example B169, 2-(6-(4-((3,3-difluoro-1-pyrrolidinyl)carbonyl)phen-yl)-1,3-benzothiazol-2-yl)-2-(methylsulfonyl)-N-(2-sulfamoylethyl)a-cetamide], for which the values for the IC50 on hepatic lipase (HL) and on Endothelial lipase (EL) were 91 nM and under 10 nM, respectively.

Take `COCCNC(=O)c1ccc(-c2ccc3nc(C(C(=O)NCCS(N)(=O)=O)S(=O)(=O)Cc4ccc(F)cc4)sc3c2)cc1` (centres unmarked) [Example B112, 4-(2-(1-((4-fluorobenzyl)sul-fonyl)-2-oxo-2-((2-sulfamoylethyl)amino)eth-yl)-1,3-benzothiazol-6-yl)-N-(2-methoxyethyl)ben-zamide]: the IC50 against hepatic lipase (HL) is 8330 nM; against Endothelial lipase (EL), under 10 nM.

Turning to `CS(=O)(=O)C(C(=O)NCCS(N)(=O)=O)c1nc2ccc(-c3ccc(C(=O)N4CC(F)(F)C4)cc3)cc2s1` (centres unmarked) [Example B166, 2-(6-(4-(3,3-Difluoroazetidine-1-carbonyl)phenyl)benzo[d]thiazol-2-yl)-2-(methylsulfonyl)-N-(2-sulfamoylethyl)acetamide], the IC50 on hepatic lipase (HL) (HL partially purified from conditioned media of COS cells, 30 min incubation with compound at 37° C., A10070/DMPG vesicles) was 13 nM; on Endothelial lipase (EL) (EL from conditioned media of HT-1080 cells, 30 min incubation with compound at 37° C., A10070/DMPG vesicles), under 10 nM.

As to `CS(=O)(=O)C(C(=O)NCCS(N)(=O)=O)c1nc2ccc(-c3cc(O)ncc3F)cc2s1` (centres unmarked) [Example B192, 2-(6-(5-fluoro-2-oxo-1,2-dihydro-4-pyridinyl)-1,3-benzothiazol-2-yl)-2-(methylsulfonyl)-N-(2-sulfamoylethyl)acetamide], the IC50 was 20600 nM at hepatic lipase (HL) and under 10 nM against Endothelial lipase (EL).

Consider `NS(=O)(=O)CCNC(=O)C(c1nc2ccc(-c3ccc(C(=O)N4CCOCC4)cc3)cc2s1)S(=O)(=O)Cc1ccccc1` (centres unmarked) [Example B102, 2-(benzylsulfonyl)-2-(6-(4-(4-morpholinylcarbonyl)phen-yl)-1,3-benzothiazol-2-yl)-N-(2-sulfamoylethyl)a-cetamide], for which the values for the 50% inhibitory concentration (IC50) against hepatic lipase (HL) and at Endothelial lipase (EL) were 5290 nM and 18 nM, respectively.

Turning to `CS(=O)(=O)C(C(=O)NCCS(N)(=O)=O)c1nc2ccc(-c3cccc(O)n3)cc2s1` (centres unmarked) [Example B188, 2-(methylsulfonyl)-2-(6-(6-oxo-1,6-dihydro-2-pyridinyl)-1,3-benzothiazol-2-yl)-N-(2-sulfamoylethyl)acetamide], the IC50 was 398 nM on hepatic lipase (HL) and under 10 nM on Endothelial lipase (EL).

Consider `CS(=O)(=O)C(C(=O)NCCS(N)(=O)=O)c1nc2ccc(-c3cccc(C#N)c3)cc2s1` (centres unmarked) [Example B51, 2-(6-(3-cyanophenyl)-1,3-benzothiazol-2-yl)-2-(methylsulfonyl)-N-(2-sulfamoylethyl)acetamide], for which the IC50 on hepatic lipase (HL) and against Endothelial lipase (EL) was under 10 nM throughout.

In the case of `NS(=O)(=O)CCNC(=O)C(c1nc2ccc(-c3cnn(CCN4CCOCC4)c3)cc2s1)S(=O)(=O)Cc1ccc(F)cc1` (centres unmarked) [Example B75, 2-((4-fluorobenzyl)sul-fonyl)-2-(6-(1-(2-(4-morpholinyl)ethyl)-1H-pyrazol-4-yl)-1,3-benzothiazol-2-yl)-N-(2-sulfamoylethyl)acetamide], the values for the IC50 against hepatic lipase (HL) and against Endothelial lipase (EL) were 25000 nM and under 10 nM, respectively.

With `CS(=O)(=O)C(C(=O)NCCS(N)(=O)=O)c1nc2cc(-c3ccnc(F)c3)ccc2s1` (centres unmarked) [Example B369, 2-[5-(2-fluoropyridin-4-yl)-1,3-benzothiazol-2-yl]-2-methanesulfonyl-N-(2-sulfamoylethyl)acetamide], the IC50 against hepatic lipase (HL) worked out at 414 nM; against Endothelial lipase (EL), 1.5 nM.

On to `COCCS(=O)(=O)C(C(=O)NCc1cc(C(C)C)no1)c1nc2ccc(-c3ccccc3)cc2s1` (centres unmarked) [Example B232, 2-(2-methoxyethane-sulfonyl)-2-(6-phenyl-1,3-benzothiazol-2-yl)-N-{[3-(propan-2-yl)-1,2-oxazol-5-yl]methyl}acetamide], for which the figures for the half-inhibitory concentration (IC50) against hepatic lipase (HL) and on Endothelial lipase (EL) were 0.8 nM and 45.9 nM, respectively.

As for `Cn1cc(-c2ccc3nc(C(C(=O)NCCS(N)(=O)=O)S(=O)(=O)Cc4cccc(C(F)(F)F)c4)sc3c2)ccc1=O` (centres unmarked) [Example B366, 2-[6-(1-methyl-6-oxo-1,6-dihydropyridin-3-yl)-1,3-benzothiazol-2-yl]-N-(2-sulfamoylethyl)-2-{[3-(trifluoromethyl)phen-yl]methanesulfonyl}a-cetamide], the IC50 worked out at 219 nM on hepatic lipase (HL) and 4.4 nM on Endothelial lipase (EL).

Regarding `NS(=O)(=O)CCNC(=O)C(c1nc2ccc(-c3ccccc3)cc2s1)S(=O)(=O)Cc1ccccc1` (centres unmarked) [Example B104, 2-(benzylsulfonyl)-2-(6-phenyl-1,3-benzothiazol-2-yl)-N-(2-sulfamoylethyl)a-cetamide], the IC50 at hepatic lipase (HL) and on Endothelial lipase (EL) was under 10 nM throughout.

With `Cc1nnc(CNC(=O)C(c2nc3cc(C)c(-c4ccc(C(=O)N5CCOCC5)cc4)cc3s2)S(C)(=O)=O)o1` (centres unmarked) [Example B81, 2-{5-methyl-6-[4-(4-morpholinylcarbonyl)phen-yl]-1,3-benzothiazol-2-yl}-N-[(5-methyl-1,3,4-oxadiazol-2-yl)methyl]-2-(methylsulfonyl)acetamide], the IC50 on hepatic lipase (HL) came to 196 nM; on Endothelial lipase (EL) it was 14 nM.

`COCCS(=O)(=O)C(C(=O)NCCS(N)(=O)=O)c1nc2ccc(-c3ccc(F)nc3)cc2s1` (centres unmarked) [Example B281, 2-[6-(6-fluoropyridin-3-yl)-1,3-benzothiazol-2-yl]-2-(2-methoxyethane-sulfonyl)-N-(2-sulfamoylethyl)acetamide]: the IC50 came out at 110 nM against hepatic lipase (HL) and 17.9 nM against Endothelial lipase (EL).

For the compound `CS(=O)(=O)C(C(=O)NCCS(N)(=O)=O)c1nc2cc(-c3ccc(F)nc3F)ccc2s1` (centres unmarked) [Example B385, 2-[5-(2,6-difluoropyridin-3-yl)-1,3-benzothiazol-2-yl]-2-methanesulfonyl-N-(2-sulfamoylethyl)a-cetamide], the values for the IC50 against hepatic lipase (HL) and at Endothelial lipase (EL) were 20.5 nM and 3.5 nM, respectively.

In the case of `CC(=O)Nc1ccc(-c2ccc3nc(C(C(=O)NCCS(N)(=O)=O)S(=O)(=O)CCC(F)(F)F)sc3c2)cc1` (centres unmarked) [Example B55, 2-(6-(4-acetamidophenyl)-1,3-benzothiazol-2-yl)-N-(2-sulfamoylethyl)-2-((3,3,3-trifluoropropyl)sul-fonyl)acetamide], the 50% inhibitory concentration (IC50) against hepatic lipase (HL) is 55 nM; at Endothelial lipase (EL), under 10 nM.

`CC(C)c1cc(CNC(=O)c2ccc3nc(C(C(=O)NCCS(N)(=O)=O)S(=O)(=O)CCC(F)(F)F)sc3c2)on1` (centres unmarked) [Example B199, N-((3-isopropyl-5-isoxazolyl)methyl)-2-(2-oxo-2-((2-sulfamoylethyl)a-mino)-1-((3,3,3-trifluoropropyl)sulfonyl)eth-yl)-1,3-benzothiazole-6-carboxamide]: the IC50 stood at 3670 nM against hepatic lipase (HL) and 166 nM on Endothelial lipase (EL).

Regarding `CS(=O)(=O)C(C(=O)NCc1cccc(S(N)(=O)=O)c1)c1nc2ccc(-c3ccccc3)cc2s1` (centres unmarked) [Example B256, 2-methanesulfonyl-2-(6-phenyl-1,3-benzothiazol-2-yl)-N-[(3-sulfamoylphen-yl)methyl]acetamide], the values for the concentration for half-maximal inhibition (IC50) against hepatic lipase (HL) and at Endothelial lipase (EL) were 14.7 nM and 190 nM, respectively.

Regarding `NS(=O)(=O)CCNC(=O)C(c1nc2ccc(-c3cncnc3)cc2s1)S(=O)(=O)Cc1ccc(F)cc1` (centres unmarked) [Example B143, 2-((4-fluorobenzyl)sul-fonyl)-2-(6-(5-pyrimidinyl)-1,3-benzothiazol-2-yl)-N-(2-sulfamoylethyl)acetamide], the IC50 was determined as 4740 nM against hepatic lipase (HL) and 18 nM against Endothelial lipase (EL).

For the compound `NS(=O)(=O)CCNC(=O)C(c1nc2ccc(-c3ccc(OCCN4CCCCC4)cc3)cc2s1)S(=O)(=O)CCC(F)(F)F` (centres unmarked) [Example B54, 2-(6-(4-(2-(1-piperidinyl)ethoxy)phenyl)-1,3-benzothiazol-2-yl)-N-(2-sulfamoylethyl)-2-((3,3.3-trifluoropropyl)sul-fonyl)acetamide], the IC50 is 23 nM on hepatic lipase (HL) and under 10 nM against Endothelial lipase (EL).

Consider `CCS(=O)(=O)C(C(=O)NCc1nnc(C)o1)c1nc2cc(F)c(-c3ccccc3)cc2s1` (centres unmarked) [Example B151, 2-(ethylsulfonyl)-2-(5-fluoro-6-phenyl-1,3-benzothiazol-2-yl)-N-((5-methyl-1,3,4-oxadiazol-2-yl)methyl)acetamide], for which the IC50 at hepatic lipase (HL) is 47 nM; at Endothelial lipase (EL), under 10 nM.

As to `NS(=O)(=O)CCNC(=O)C(c1nc2ccc(-c3cnn(CCN4CCOCC4)c3)cc2s1)S(=O)(=O)CCC(F)(F)F` (centres unmarked) [Example B69, 2-(6-(1-(2-(4-morpholinyl)eth-yl)-1H-pyrazol-4-yl)-1,3-benzothiazol-2-yl)-N-(2-sulfamoylethyl)-2-((3,3,3-trifluoropropyl)sul-fonyl)acetamide], the IC50 at hepatic lipase (HL) was 612 nM; against Endothelial lipase (EL), under 10 nM.

Consider `COC1CN(C(=O)c2ccc(-c3ccc4nc(C(C(=O)NCCS(N)(=O)=O)S(=O)(=O)Cc5ccc(F)cc5)sc4c3)cc2)C1` (centres unmarked) [Example B302, 2-[(4-fluorophen-yl)methanesulfonyl]-2-{6-[4-(3-methoxyazetidine-1-carbonyl)phenyl]-1,3-benzothiazol-2-yl}-N-(2-sulfamoylethyl)acetamide], for which the IC50 is 52 nM against hepatic lipase (HL) and 7.2 nM against Endothelial lipase (EL).
